Where two headings read alike, the source gives them in different places.

From US20130085133A1, “ANTI-VIRAL TREATMENT AND ASSAY TO SCREENFOR ANTI-VIRAL AGENT” (Sourthern Research Institute Office of Commercialization …, priority 2010, published 2013) come the findings set out here.

A short description of one data set: in vitro. To be noted: human.
The test system of data set [1] is respiratory syncytial virus (RSV) strain Long. The data set is described as follows: microbe, parasite or virus in culture. To be noted: human respiratory syncytial virus, HEp-2, 144 h.
In a further data set the test system is RSV, Long strain. The data set is described as follows: virus titer Reduction (VTR) assay, progeny virus TCID50 in HEp-2 cells. To be noted: for TCID-50 Reduction @ 3 ug/ml: 3 ug/ml compound; for TCID-50 Reduction @ 3 ug/ml / TCID-50 Reduction 6 @ ug/ml / TCID-50 Reduction 12 @ ug/ml / TCID-50 Reduction 25 @ ug/ml: log reduction in progeny virus titer; for TCID-50 Reduction 6 @ ug/ml: 6 ug/ml compound. The class given is cell-based, respiratory syncytial virus (RSV). In short, it runs like this: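 HEp-2 cells infected with RSV Long (MOI 0.9) with four compound concentrations for 48 h; 10-fold serial dilutions of progeny supernatant then put on fresh HEp-2 cells for 6 days. Wells below 50% viability (CellTiter-Glo luminescence) scored infected; TCID50 taken as dilution giving 2 of 4 positive wells.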

Data set [2] deals with respiratory syncytial virus (RSV) strain Long. The following applies: EC50 for CPE inhibition, HEp-2 cells, six days, tested range 25 ug/mL to 0.048 ug/mL (Chembridge), 50 uM to 0.097 uM (Enamine, SRI Proprietary).
A further data set relates to HEp-2 cells. The experiment in a line: cytotoxicity assay (percent viability of HEp-2 cells, Cell Titer-Glo). To be noted: cell viability of HEp-2 cells (text: IC50), top concentration 25 ug/mL (Chembridge), 50 uM (Enamine, SRI Proprietary).
Experiment in data set [3]: as above
Method: (§1) Test compounds were evaluated by measuring their antiviral activity, cell toxicity, and selectivity. Test compounds were serially diluted in a plate to plate matrix or “stacked plate” matrix. All 320 compounds in a source plate were diluted together resulting in a 10 point dose response dilution series. It was visualized as a serial dilution series proceeding vertically through a stack of plates with the high dose plate on top and the low dose plate on the bottom.
(§2) Following the six day incubation period, the assay plates were equilibrated to room temperature for 30 min and an equal volume (30 μL) of Cell Titer-Glo reagent (Promega Inc.) was added to each well using a WellMate (Matrix, Hudson, N.H.) and plates were incubated for an additional 10 min at room temperature. At the end of the incubation, luminescence was measured using a Perkin Elmer Envision™ multi-label reader (PerkinElmer, Wellesley, Mass.) with an integration time of 0.1 s.
(§3) Data was analyzed using ActivityBase software (IDBS, Inc, Guilford, UK). thirty two control wells containing cells only and twenty four wells containing cells and virus were included on each assay plate and used to calculate Z′ value for each plate and to normalize the data on a per plate basis. […] Eight ribavirin positive control wells were included on each plate for quality control purposes, but were not used in Z′ calculations. […] In the toxicity assay, results are described as percent viability and the calculation is the same.
(§4) An EC50 (for CPE inhibition) and IC50 (for cell viability) were calculated for each substance using the 4 parameter Levenburg-Marquardt algorithm with parameter A locked at 0 and parameter B locked at 100. Standard deviation, normalized chi2 and hill slope were used to evaluate the curves. Values were not extrapolated beyond the tested range of concentrations.
The following applies: human, HEp-2 cells.

Method for in vitro: as §1, §2, §3, §4

The compound `O=S(=O)(c1cc(Cl)c(O)c(Cl)c1)c1cc(Cl)c(O)c(Cl)c1` [AB00275543] gave a CC50 at 6 days in “in vitro” above 25 µg/mL. Further, the EC50 in data set [1] worked out at 16.2 µg/mL.
In the case of `Cc1ccc2[nH]c3c(c2c1)CN(C)CC3` [AB00275559], in the data set on RSV, Long strain, the “TCID-50 Reduction @ 3 ug/ml” value is 1.00 and the “TCID-50 Reduction 6 @ ug/ml” value is listed as 1.93. Further, in the data set with RSV, Long strain (12 ug/ml compound), the “TCID-50 Reduction 12 @ ug/ml” value turned out to be 2.21. Also, in the data set with RSV, Long strain (25 ug/ml compound), the “TCID-50 Reduction 25 @ ug/ml” value was determined as 1.93. For the same compound, the EC50 in data set [2] (unit not given) worked out at 6.29. Besides, the CC50 with HEp-2 cells (unit not given) was above 25.00.
With `COc1c2ccoc2nc2c(OC)cccc12` [AB00276394], the CC50 in “in vitro” is above 25 µg/mL. Also, in data set [1], the EC50 is 15.2 µg/mL.
As to `CCN(CC)C(=O)C1CCCc2c1[nH]c1ccc(Cl)cc21` (stereo not drawn) [AB00279132], in the data set on RSV, Long strain, the “TCID-50 Reduction @ 3 ug/ml” value was found to be 1.00 and the “TCID-50 Reduction 6 @ ug/ml” value is reported as 3.63. For the same compound, the “TCID-50 Reduction 12 @ ug/ml” value in the data set on RSV, Long strain (12 ug/ml compound) was 4.22. For the same compound, the “TCID-50 Reduction 25 @ ug/ml” value in the data set with RSV, Long strain (25 ug/ml compound) is listed as 3.83. Moreover, in data set [2] (unit not given), the EC50 came to 1.92. In the data set with HEp-2 cells (unit not given), this compound registered a CC50 above 25.00.
As to `CCC(Sc1nnc2c3ccccc3n(CCc3ccccc3)c2n1)C(=O)Nc1ccc(S(N)(=O)=O)cc1` (stereo not drawn) [AB00287440], the EC50 in data set [2] (unit not given) amounted to 17.84. In addition, the CC50 in the data set on HEp-2 cells (unit not given) is given as above 25.00.
Taken in the same sequence, the figures for `N#CCCCSc1nnnn1-c1cccc(Cl)c1` [AB00287736] were 16.16 and above 25.00.
In data set [2] (unit not given), `Cc1[nH]c2ccccc2c1-c1csc(-c2ccncc2)n1` [AB00291074] displayed an EC50 of 20.59. The CC50 in the data set on HEp-2 cells (unit not given) is listed as above 25.00.
In the same order, the values of `COc1cc(OC)c(OC)cc1C=Nn1c(S)nnc1-c1ccc(C(C)(C)C)cc1` [AB00291789] are 10.96 and above 25.00.
In data set [2] (unit not given), `COc1ccc(-c2cn3cccnc3n2)cc1F` [AB00292655] yielded an EC50 of 10.88. For the same compound, in the data set on HEp-2 cells (unit not given), the CC50 is reported as above 25.00.
In “in vitro”, `N#CCCN1CCN(C(=S)c2ccc(-c3cccc(Cl)c3)o2)CC1` [AB00294368] returned a CC50 above 25 µg/mL. In data set [1], this compound gave an EC50 of 15 µg/mL.
`C=CCn1c(SCc2ccc(OC)c([N+](=O)[O-])c2)nnc1-c1cccc(Br)c1` [AB00294809] came in with an EC50 in data set [2] (unit not given) of 20.29. This compound yielded a CC50 in the data set with HEp-2 cells (unit not given) above 25.00.
`Fc1ccc(-c2cc(C(F)(F)F)n[nH]2)cc1` [AB00294826] displayed an EC50 in data set [2] (unit not given) of 16.73. In the data set on HEp-2 cells (unit not given), the CC50 is on record as above 25.00.
Consider `CC(=O)Nc1ccc(Nc2ncnc3sc4c(c23)CCCC4)cc1` [AB00296051], for which, in data set [2] (unit not given), the EC50 amounted to 16.70. Also, the CC50 in the data set with HEp-2 cells (unit not given) is above 25.00.
As for `Cc1cccc(-n2c(Cc3cccc([N+](=O)[O-])c3)nc3ccccc3c2=O)c1` [AB00297463], in the data set “in vitro”, the CC50 at 6 days was above 25 µg/mL. This compound registered an EC50 in data set [1] of 16.3 µg/mL.
In turn, `O=Cc1cn(CC(=O)N2CCc3ccccc3C2)c2ccc(Br)cc12` [AB00302396] displayed a CC50 in “in vitro” above 25 µg/mL. In data set [1], this compound registered an EC50 of 23.8 µg/mL.
As to `S=C(c1c[nH]c2ccc(Br)cc12)N1CCOCC1` [AB00303357], in data set [2] (unit not given), the EC50 was determined as 21.92. The same compound registered a CC50 with HEp-2 cells (unit not given) above 25.00.
For the compound `O=C(Nc1ccc2[nH]c(-c3ccccc3)nc2c1)c1ccccc1` [AB00308659], in the data set on RSV, Long strain, the “TCID-50 Reduction @ 3 ug/ml” value worked out at 2.82 and the “TCID-50 Reduction 6 @ ug/ml” value is 3.64. For the same compound, the “TCID-50 Reduction 12 @ ug/ml” value with RSV, Long strain (12 ug/ml compound) came out at 6.43. For the same compound, the “TCID-50 Reduction 25 @ ug/ml” value in the data set with RSV, Long strain (25 ug/ml compound) came out at 6.40. For the same compound, in data set [2] (unit not given), the EC50 was determined as 8.66. Besides, the CC50 in the data set with HEp-2 cells (unit not given) is on record as above 25.00.
`O=C(O)CCNc1nc(Cc2ccccc2)nc2sc3c(c12)CCCC3` [AB00308859] came in with an EC50 in data set [2] (unit not given) of 20.48. Further, the CC50 with HEp-2 cells (unit not given) is above 25.00.
On to `COc1cc(N2CCCC2)c(OC)cc1C=C(C#N)c1nc2ccccc2[nH]1` [AB00321587], for which, in data set [2] (unit not given), the EC50 is given as 9.15. The same compound came in with a CC50 in the data set on HEp-2 cells (unit not given) above 25.00.
Take `Cc1cc(C=C(C#N)c2nc3ccccc3[nH]2)c(C)n1-c1ccccn1` [AB00342188]: the EC50 in data set [2] (unit not given) is recorded as 13.11. Further, in the data set on HEp-2 cells (unit not given), the CC50 is above 25.00.
In turn, `Cc1ccc(-c2nc3ccccc3[nH]2)cc1NC(=O)c1ccc2c(c1)OCO2` [AB00348716] came in with an EC50 in data set [2] (unit not given) of 17.26. The compound also came in with a CC50 in the data set on HEp-2 cells (unit not given) above 25.00.
The compound `CCCOc1ccc(-c2n[nH]c(SCc3ccc(C(=O)OC)o3)n2)cc1` [AB00356597] came in with an EC50 in data set [2] (unit not given) of 11.59. This compound also showed a CC50 in the data set on HEp-2 cells (unit not given) above 25.00.
The compound `Brc1cc2nc[nH]c2c2ccccc12` [AB00358081] gave an EC50 in data set [2] (unit not given) of 12.07. In the data set with HEp-2 cells (unit not given), this compound gave a CC50 above 25.00.
In the same order, the values of `COc1ccc2[nH]c(C(C#N)=Cc3cc4c(cc3Cl)OCO4)nc2c1` [AB00364575] are 17.76 and above 25.00.
`C=CCN1C(=O)C2(C(C#N)=C(N)Oc3ccccc32)C(C(C)=O)=C1C` (stereo not drawn) [AB00364858] yielded a CC50 at 6 days in “in vitro” above 25 µg/mL. Moreover, the EC50 in data set [1] was 21.2 µg/mL.
In the case of `O=C(Nc1ccc(OC(F)(F)F)cc1)c1ccc2[nH]cnc2c1` [AB00368222], the EC50 in data set [2] (unit not given) stood at 12.26. Moreover, the CC50 in the data set on HEp-2 cells (unit not given) is above 25.00.
Take `CNC(=S)NNC(=O)COc1ccccc1C` [AB00370002]: the CC50 in “in vitro” is above 25 µg/mL. For the same compound, in data set [1], the EC50 is 22 µg/mL.
As to `Cc1ccc2[nH]c(-c3sc4nc(C)ccc4c3N)nc2c1` [AB00372475], the EC50 in data set [2] (unit not given) worked out at 21.04. In addition, the CC50 with HEp-2 cells (unit not given) is recorded as above 25.00.
`O=c1c(F)cn(Cc2ccc([N+](=O)[O-])cc2)c(=O)n1Cc1ccc([N+](=O)[O-])cc1` [AB00373945] registered a CC50 in “in vitro” above 50 µM. This compound displayed an EC50 in data set [1] of 13.3 µM.
Taken in the same sequence, the figures for `Nc1ccc2c(c1)Cc1ccccc1-2` [AB00374695] were above 50 µM and 46.8 µM.
Take `O=S(=O)(O)c1ccc2c(c1)C1=NC/2=N\c2c3cc(S(=O)(=O)O)ccc3c3[n]2[Cu][n]2/c(c4ccc(S(=O)(=O)O)cc4/c2=N/C2=NC(=N\3)/c3cc(S(=O)(=O)O)ccc32)=N\1` [AB00514356]: the CC50 in the data set “in vitro” is above 50 µM.
`CCOC(=O)c1ccc(-n2c(C)cc(C=C(C#N)c3nc4ccccc4[nH]3)c2C)cc1` [AB00709376] returned an EC50 in data set [2] (unit inferred) of 10.8 µM. The compound also registered a CC50 with HEp-2 cells (unit inferred) above 50 µM.
In data set [2] (unit inferred), `CC(N)=C(C#N)C(=O)CN1C(=O)NC(Cc2c[nH]c3ccccc23)C1=O` (stereo not drawn) [AB00722846] had an EC50 of 1.74 µM. The compound also yielded a CC50 with HEp-2 cells (unit inferred) above 50 µM.
`CC(=O)c1ccc(NC(=O)C(Cc2c[nH]c3ccccc23)NC(=O)c2cccs2)cc1` (stereo not drawn) [AB00776619] had an EC50 in data set [2] (unit inferred) of 27.3 µM. In addition, the CC50 in the data set on HEp-2 cells (unit inferred) was above 50 µM.
In data set [2] (unit inferred), `CC1CCc2[nH]c3ccc(C(=O)OCC(=O)C(C)(C)C)cc3c2C1` (stereo not drawn) [AB00796257] registered an EC50 of 24.8 µM. The CC50 in the data set with HEp-2 cells (unit inferred) is above 50 µM.
Compound `CC(=O)Nc1ccc(NC(=O)c2ccc3[nH]c4c(c3c2)CC(C)CC4)cc1` (stereo not drawn) [AB00804772] yielded an EC50 in data set [2] (unit inferred) of 43.4 µM. For the same compound, the CC50 in the data set on HEp-2 cells (unit inferred) was above 50 µM.
Compound `Cc1sc(NC(=O)Cc2ccccc2)c(C(=O)O)c1C` [AB00877398] returned an EC50 in data set [2] (unit inferred) of 40.1 µM. The CC50 in the data set on HEp-2 cells (unit inferred) was above 50 µM.
In “in vitro”, `COc1ccccc1/C=N/NC(=N)N[N+](=O)[O-]` [SRI-101] came in with a CC50 above 50 µM. For the same compound, the EC50 in data set [1] turned out to be 35.7 µM.
Take `CC(=O)Nc1nc(N)nc2ccc(CNc3ccc(C(=O)N[C@H](CCC(=O)O)C(=O)O)cc3)nc12` [SRI-10531]: the log reduction at 5 µg/mL in the data set on RSV, Long strain (human respiratory syncytial virus, 48 h, 5 ug/ml compound, read-out: TCID-50 Reduction @ 5 ug/ml) came out at 0.16. Further, the log reduction at 12 µg/mL in the data set on RSV, Long strain (human respiratory syncytial virus, 48 h, 12 ug/ml compound, read-out: TCID-50 Reduction 12 @ ug/ml) worked out at 0.97. Besides, the log reduction at 25 µg/mL in the data set with RSV, Long strain (human respiratory syncytial virus, 48 h, 25 ug/ml compound, read-out: TCID-50 Reduction 25 @ ug/ml) is -0.02. Moreover, in the data set on RSV, Long strain (human respiratory syncytial virus, 48 h, 50 ug/ml compound, read-out: TCID-50 Reduction @ 50 ug/ml), the log reduction at 50 µg/mL stood at 0.28. In data set [1], this compound came in with an EC50 of 9.09 µM. Also, the CC50 at 6 days in data set [3] is above 50 µM.
